“Also recorded” adds a separate entry of the source.
Key:
[1] = test system: Influenza A/PR/8/34 (H1N1 virus); assay: In vivo mouse influenza challenge, dobutamine and ritodrine intra-peritoneal; conditions: H1N1-infected mice; for Sum Total Morbidity: FIG. 3
Description: 5) In Vivo Mouse Studies Using Dobutamine
Protocol: Fifty (50) C57BL/6 female mice (6-7 weeks old), were divided into […] experimental groups containing ten (10) animals each. On day 1, animals received an intranasal lethal dose (50 μl total, 25 μl nostril) of Influenza A/PR/8/34 under halothane induced anesthesia. On Day 3, animals received one intra-peritoneal injection (100-150 μl) of the test compound. On Day 4 or 5, all animals still alive received a second intra-peritoneal injection (100-150 μl) of the test compound.
All animals were assessed daily for morbidity, weight loss and survival from Day 1 until at least Day 6. Morbidity variables (i.e. Body Condition, Posture, Activity, Piloerection, Respiration, Vocalisation, Ataxia and Oculo/Nasal Discharges) were recorded according to the following scale of severity: Normal (0), Mild (1), Laboured (2) and Severe/Cull-point (3).
Using standard techniques as described above, mice were infected with a H1N1 virus which was allowed to become established in each of the subjects. Each test mouse was then treated with dobutamine (BC1021) either with a single dose on day 3 after infection with the virus, or as two doses, one on day 3 and one on day 4 after infection. In the control mice, no dobutamine was administered. The weight loss of both treated and untreated mice was then determined.
The inventors also investigated the effects of dobutamine (single and double doses) as well as ritodrine (single and double doses) on the Sum Total Morbidity of the tested mice. Referring to FIG. 3, there are shown the data of these experiments. The value of Sum Total Morbidity corresponds to a confidence value of the general “wellness” of the mice, and takes into account the quality of the fur and grooming of the mice, and whether or not the mice are able to feed and walk. Measurement of Morbidity values will be known to the skilled technician.

TNF-α = TNF-α levels in PBMC under LPS stimulation (ELISA); format: cell-based, human; conditions: for Percentage TNF-α levels compared to 100% untreated cells under LPS stimulation: PBMC; for concentration of TNF-α in LPS stimulated cells: text summary of Table 2, concentration not stated
Description: 1) Isolation, Culture and Treatment of Peripheral Blood Mononuclear Cells (PBMC) Blood was collected in 6 ml vacutainers (green cap). Blood was processed within 2 h of collection. Materials used: Non-coagulated blood; FCS; RPMI-1640 media supplemented with L-Gln and P/S; PBS; sterile tips and pipettes; Sterile 15 ml Falcon; Sterile V-bottom 96-well plates with lids; Neubauer chamber; Trypan Blue solution; 70% IPA solution; Accuspin-Histopaque tubes (Sigma, A7054) Procedure: • 1. Dilute samples 1:1 in sterile PBS; • 2. Add 30 ml of diluted blood into an Accuspin-Histopaque tube (Sigma, A7054); • 3. Centrifuge at 800 rcf 15min at room temperature (RT); • 4. After centrifugation, the red blood cells will remain at the bottom below the frit. The monocytes (PBMC) will be present on a layer above the frit, with the plasma on top; • 5. Collect the PBMC layer with a pipette into a fresh 15 ml Falcon tube and top up to 15 ml of PBS; • 6. Centrifuge at 250 rcf 10 min at RT; • 7. Discard the supernatant, flick the pellet and add another 10 ml of PBS; • 8. Centrifuge at 250 rcf 10 min at RT; • 9. Repeat steps 7 and 8; • 10. […] Count cells and make a 4×10^6 cell/ml suspension in complete medium. Add 100 μl of cell suspension per well in a V-bottom 96-well plate. Then add 50 μl of stimulant or vehicle in complete media, and 50 μl of drug or vehicle in complete media. Incubate the cells for 24 h at 37° C. 5% CO2; • 12. After incubation, take 60 μl of cell supernatant to measure IFNγ and TNFα by ELISA (OptEIA human IFNγ, cat No. 555142 and human TNF, Cat No. 555212) following manufacturer's instructions (BD Biosciences); The two mitogens that the inventors used to stimulate lymphocytes, and therefore assess immune function, were lipopolysaccharide (LPS) and Concanavalin A (Con A). LPS acts on B cells but not T cells, whereas Con A acts on T cells but not B cells. The effects of two embodiments of the compound represented by formula I, i.e. dobutamine (referred to in the tables as BC1021) and ritodrine (BC1023), on the levels of IFN-γ and TNF-α were investigated in LPS and Con A stimulated assays. Peripheral Blood Mononuclear Cells (PMBC) were independently administered with each mitogen, LPS or Con A, and then treated with either dobutamine or ritodrine. Control experiments were conducted in which no LPS or Con A was added, such that any effect on the levels of IFN-γ and TNF-α could be directly attributed to the presence of the test compound, dobutamine or ritodrine. The values in the Tables are expressed as the percentage value of the LPS only control. […] Standard deviation values (s.d.) are given underneath each value of expressed IFN-γ levels.

[2] = two doses on days 3 and 4 (Groups C and E)

Compound	Sum Total Morbidity ([1]; all doses, single or double)	effect on weight loss ([1]; single dose on day 3, FIG. 1)	percentage survival of mice ([1]; single dose on day 3, FIG. 2)	Sum Total Morbidity [1, 2]	lower reduction in weight loss than the control mice ([1]; two doses on days 3 and 4 after infection, FIG. 1) [%]	percentage survival of mice ([1]; two doses, day 3 and day 4, FIG. 2)	Percentage TNF-α levels compared to 100% untreated cells under LPS stimulation (TNF-α; + LPS, compound 1 μM, 24 h) [%]	Percentage TNF-α levels compared to 100% untreated cells under LPS stimulation (TNF-α; + LPS, compound 10 μM, 24 h) [%]	Percentage TNF-α levels compared to 100% untreated cells under LPS stimulation (TNF-α; + LPS, compound 100 μM, 24 h) [%]	Percentage TNF-α levels compared to 100% untreated cells under LPS stimulation (TNF-α; compound only (no LPS), 1 μM) [%]	Percentage TNF-α levels compared to 100% untreated cells under LPS stimulation (TNF-α; compound only (no LPS), 10 μM) [%]	Percentage TNF-α levels compared to 100% untreated cells under LPS stimulation (TNF-α; compound only (no LPS), 100 μM) [%]	concentration of TNF-α in LPS stimulated cells (TNF-α)
CC(CCc1ccc(O)cc1)NCCc1ccc(O)c(O)c1 (stereo not shown) [BC1021, dobutamine]	improvement of the morbidity value	little effect	little effect	the most improvements; also recorded: the most effective	≥ 10	higher survival rate than the control	91.20	84.79	81.41	−80.18	−145.07	−151.15	decreased
CC(NCCc1ccc(O)cc1)C(O)c1ccc(O)cc1 (stereo not shown) [BC1023, ritodrine]	improvement of the morbidity value	–	–	the most improvements	–	–	62.12	85.01	85.74	−29.75	0.74	−56.57	decreased

Reference: patent US20120283334A1, “Treatment of Viral Infections” (Biocopea, Ltd., priority 2009, published 2012)
